Columns and labels:
[1] = test system: existing sprouts on post-dormant potatoes with peeps and sprouts extant; test: Comparison of sprout suppressing chemicals applied by thermofogging (Example VII); format: in vivo; details: for Burn “old”: effect upon old sprouts, up to nine months old; for Burn “old” / Burn “new”: thermofogging at comparable dosages; for Burn “new”: newly emerged sprouts and peeps, generally less than a month
Text: Various sprout suppressing chemicals were compared for their ability to suppress existing sprouts on post-dormant potatoes with peeps and sprouts extant.
In the above table “Burn old” refers to the effect upon old sprouts, which included sprouts up to nine months old, these being generally more difficult to desiccate, while “burn new” refers to newly emerged sprouts and peeps, generally less than a month or so in existence.

[2] = test system: stored potatoes with white peeps showing from the eyes; test: Thermofogging of 1-nonanol on bulk stored potatoes with white peeps (Example II); format: in vivo; details: thermofogged at about 500° F., 8 ml for 2 kg of potatoes
Procedure: Stored potatoes in bulk storage were treated with 1-nonanol (n-nonyl alcohol) via a thermofogger to determine sprout inhibition. The thermofogger was operated at an aerosol chamber temperature of about 500° F. A good stable aerosol was produced. The alcohol was applied at a dosage of 8 ml for 2 kg of potatoes. The system was open so that the actual dosage reaching the potatoes was considerably less than the fogged amount. In a first bulk storage, the potatoes had white “peeps” showing from the eyes.

[3] = test system: potatoes with sprouts averaging in excess of about 2 cm, some up to 8 cm or more; test: Thermofogging on potatoes with very long sprouts (Examples III and IV); format: in vivo; details: for kill of large sprouts: full strength
Procedure: In another test, the potatoes were treated with 1-nonanol at the same fogging temperature and dosage for the same period of time to achieve the same application dosage as in Example II. The potatoes in this storage had sprouts averaging in excess of about 2 cm in length. In this experiment, potatoes with very long sprouts, some up to 8 cm or more, were treated 1, 2, and 4 times sequentially with full strength nonanol. This “spray-paint” method was used to try to bring the total amount (rate) of nonanol up to a level capable of killing large sprouts as well as peeps . . . a necessity in commercial settings where sprouts of all sizes exist. […] While this was a small scale test, a whole storage full of potatoes in this condition would likely lead to secondary decays.
The results of Example III led to another experiment where nonanol and DMN were applied.

peeps and sprouts = test: Fogging of 1-nonanol compared with clove oil in burning peeps and sprouts (Example V); format: in vivo, potatoes; details: similar dosages
[4] = test system: peeps and sprouts of stored potatoes; test: General observations on treatment of stored potatoes with higher alcohols and 1,4-DMN; format: in vivo; details: 24 hours after treatment all peeps and sprouts are burned
Text: Higher alcohols, such as 1-octanol and 1-nonanol, are miscible with 1,4-DMN.
It has been observed that the dormancy-like effect produced upon stored potatoes by 1,4-DMN remains, at least to some degree, even as the residue of 1,4-DMN becomes undetectable. Thus, by proper timing of the last treatment of stored potatoes with 1,4-DMN and a subsequent treatment with 1-octanol, 1-nonanol or 1-hexanol, alcohols which are on the GRAS list, both the washed potatoes and any discharged wash water will have no harmful chemicals present. The action of higher alcohols, such as 1-octanol, 1-nonanol and 1-hexanol, on peeps and sprouts is rapid, so that 24 hours after treatment all peeps and sprouts are “burned.”

potatoes [5] = test: Thermofogging of 1-octanol on cold and warmer potatoes, damage to skin and flesh (Example IX); format: in vivo
Procedure: The 1-octanol was applied via an electrically […] thermofogger at a fog temperature within the fogger of about 500° F. to obtain a stable aerosol. The potatoes were examined about 24 hours after treatment. […] The potatoes were cut open at the dark spots. Damage to the flesh of the potatoes existed to a depth of about 5 mm to 25 mm. Potato flesh was otherwise undamaged except under the dark spots.

sprouts on potatoes = test: Mixtures of 1,4-DMN with octanol at various volumetric ratios, burn of sprouts (Example VIII); format: in vivo; design: key: +++: Excellent effect; ++: Very good effect; +: Good effect; —: Negligible effect; details: total dosage of each mixture constant
Text: All mixtures provided a more rapid burn of sprouts compared with an equal dosage of octanol or 1,4-DMN alone. The 7:1 ratio of octanol to DMN gave the best results in terms of length of non-sprouting condition before nascent sprouts again appeared.

potatoes [6] = details: in vivo; cited from earlier work

Structure (SMILES): Cc1ccc(C)c2ccccc12 [1,4-DMN, 1,4 dimethyl naphthalene]
- Burn “old” [1]: +
- Burn “new” [1]: +

Structure (SMILES): CCCCCCCCCCO [1-Decanol]
- Burn “old” [1]: ++
- Burn “new” [1]: ++

Structure (SMILES): CCCCCCCCCO [1-Nonanol, 1-nonanol]
- damage to potato flesh adjacent the eyes [2]: without any damage to potato flesh
- effect on white peeps ([2]; open system): burned to a dark color and were inactivated
- negative side effect observed ([3]; four sequential applications): wet, slimy, sprout rot
- kill of large sprouts ([3]; four sequential applications): completely killed
- kill of large sprouts ([3]; single or double applications): didn't reach a level of nonanol high enough to completely kill these sized sprouts
- effectiveness in burning peeps and sprouts relative to clove oil (peeps and sprouts): about four times as effective as clove oil
- action on peeps and sprouts [4]: rapid
- Burn “old” [1]: +++
- desiccation of existing peeps and sprouts, ranking in the test ([1]; in vivo): most effectively desiccated existing peeps and sprouts
- Burn “new” [1]: +++

Structure (SMILES): CCCCCCCCO [1-Octanol, 1-octanol]
- action on peeps and sprouts [4]: rapid
- Burn “old” [1]: ++
- Burn “new” [1]: +++
- depth of damage to the flesh under the dark spots (potatoes [5]; potato, in vivo, 24 h): 5-25 mm
- damage to potato skin (potatoes [5]; potatoes at about 36° F., fog about 500° F., examined about 24 hours after treatment): large dark damaged spots
- injury to potato skin or flesh (potatoes [5]; potatoes held at 53° F., similar dosage, fogging temperature and rate): did not show injury to the potato skin or to its flesh

Structure (SMILES): CCCCCCCCO [1:0, octanol]
- Length of Burn (sprouts on potatoes): +++
- Rapid Burn (sprouts on potatoes): ++

Structure (SMILES): CCCCC(CC)CO (centres unmarked) [2-ethyl-hexan-1-01]
- results among alcohols tested by Burton (potatoes [6]): Worst results

Structure (SMILES): CCCCCOC(C)=O [AmylAcetate, amyl acetate]
- Burn “new” [1]: ++

Structure (SMILES): CCCCCCCCCCCCO [Dodecanol]
- Burn “old” [1]: −\+
- Burn “new” [1]: −

Structure (SMILES): CCCCCCO [Hexanol, 1-hexanol]
- action on peeps and sprouts [4]: rapid
- Burn “old” [1]: +
- Burn “new” [1]: ++

Structure (SMILES): CCCCCO [amyl, amyl alcohol]
- results among alcohols tested by Burton (potatoes [6]): Best results

Structure (SMILES): CCCCCCO [n-hexyl, n-hexyl alcohol]
- results among alcohols tested by Burton (potatoes [6]): Worst results

Structure (SMILES): CCCCCCCCCO [nonyl, nonyl alcohol]
- results among alcohols tested by Burton (potatoes [6]): Best results
